Measurements reported in PubChem BioAssay (NCI).
“And” between values parts separate entries of the source, which are not always exact repeats. Equal values may be shown once.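 The compound was tested at five concentrations on cells cultured in 96-well plates, with a 48-hour exposure period. GI50 is the concentration that inhibits growth by half. TGI is the concentration that stops growth completely.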

Assays:
Assay in all cases: NCI-60 cell line screen, 48 h
SNB-75 CNS = system: SNB-75 CNS
HL-60(TB) leukemia = system: HL-60(TB) leukemia
SNB-19 CNS = system: SNB-19 CNS
MALME-3M melanoma = system: MALME-3M melanoma
SF-268 CNS = system: SF-268 CNS
KM12 colon = system: KM12 colon
SK-OV-3 ovarian = system: SK-OV-3 ovarian
SF-539 CNS = system: SF-539 CNS
MDA-MB-231 breast = system: MDA-MB-231 breast
OVCAR-3 ovarian = system: OVCAR-3 ovarian

Row | SMILES | GI50 (SNB-75 CNS) | TGI (SNB-75 CNS) | GI50 (HL-60(TB) leukemia) | TGI (HL-60(TB) leukemia) | GI50 (SNB-19 CNS) | TGI (SNB-19 CNS) | GI50 (MALME-3M melanoma) | TGI (MALME-3M melanoma) | GI50 (SF-268 CNS) | TGI (SF-268 CNS) | GI50 (KM12 colon) | TGI (KM12 colon) | GI50 (SK-OV-3 ovarian) | TGI (SK-OV-3 ovarian) | GI50 (SF-539 CNS) | TGI (SF-539 CNS) | GI50 (MDA-MB-231 breast) | TGI (MDA-MB-231 breast) | GI50 (OVCAR-3 ovarian) | TGI (OVCAR-3 ovarian)
1 | COc1cc(C(=O)O)ccc1NC(=O)[C@@H]1N[C@@H](CC(C)(C)C)[C@](C#N)(c2ccc(Cl)cc2F)[C@H]1c1cccc(Cl)c1F | 3.35 µM | 20.9 µM | 2.28 µM | 6.71 µM | 5.6 µM | 31.2 µM | 0.0448 µM | 8.27 µM | 4.62 µM | 30.5 µM | 2.58 µM | > 24.2 µM | 7.02 µM | 21.3 µM | 3.63 µM | 11.5 µM | 6.58 µM | > 100 µM | 1.77 µM | 4.3 µM
2 | C[C@]12CC[C@@H]3c4ccc(OCC(=O)O)cc4CC[C@H]3[C@@H]1CCC2=O | – | > 100 µM | – | 0.317 µM | – | > 100 µM | – | > 100 µM | – | > 100 µM | – | > 100 µM | – | > 100 µM | – | > 100 µM | – | > 100 µM | – | > 100 µM
3 | COc1cc(-c2ccc(-[n+]3nc(-c4ccc([N+](=O)[O-])cc4)nn3-c3ccc([N+](=O)[O-])cc3)c(OC)c2)ccc1-[n+]1nc(-c2ccc([N+](=O)[O-])cc2)nn1-c1ccc([N+](=O)[O-])cc1 | 1.3 µM | 2.95 µM | 1.91 µM | > 46.2 µM | 11.9 µM | 69.3 µM | 1.89 µM | 4.47 µM | 1.66 µM | 5.38 µM | 4.04 µM | 21.4 µM | 9.08 µM | 66.3 µM | 1.8 µM | 3.97 µM | 8.6 µM | 34.7 µM | 9.77 µM | 38.2 µM
4 | O=c1[nH]cnc2c1nnn2[C@@H]1O[C@H](CO)[C@@H](O)[C@H]1O | 3.22 µM | > 100 µM | 1.56 µM | 39.5 µM | – | – | – | – | 28.9 µM | > 100 µM | 7.85 µM | > 100 µM | 0.868 µM | > 100 µM | 7.66 µM | > 100 µM | 7.68 µM | > 100 µM | 3.43 µM | 33.8 µM
5 | O=C(/C=C/c1ccc2c(c1)OCO2)c1ccccc1 | 20.6 µM | 61.9 µM | 17.8 µM | 61.6 µM | 15.1 µM | 32.1 µM | 13.9 µM | 37.9 µM | 15 µM | 35.6 µM | 3.02 µM | 14 µM | 27.5 µM | 83.1 µM | 20.5 µM | 54.5 µM | 24.4 µM | 75.6 µM | 4.71 µM | 17.9 µM
6 | CC(=O)O[C@H]1C(=O)[C@@]2(C)[C@H]([C@H](OC(=O)c3ccccc3)[C@]3(O)C[C@H](OC(=O)[C@H](OC(=O)CCC(=O)OC4CCC(S/N=C(N)/N=C(\N)N(C)C)CC4)[C@@H](NC(=O)c4ccccc4)c4ccccc4)C(C)=C1C3(C)C)[C@]1(OC(C)=O)CO[C@@H]1C[C@@H]2O (some centres not stated) | < 0.005 µM | 0.0174 µM | 0.0101 µM | 0.0234 µM | 0.0205 µM | > 50 µM | – | – | 0.0212 µM | > 50 µM | 0.0106 µM | > 50 µM | 0.0144 µM | > 50 µM | 0.00847 µM | 0.0255 µM | 0.0249 µM | > 31.4 µM | 0.0112 µM | > 50 µM
7 | N#Cc1c(SCc2ccccc2)nc2[nH]c(=S)[nH]c(=S)c2c1-c1ccco1 | > 100 µM | > 100 µM | 40.6 µM | > 100 µM | 62.2 µM | > 100 µM | – | – | 32.4 µM | > 100 µM | 60.3 µM | > 100 µM | > 100 µM | > 100 µM | 31.7 µM | > 100 µM | 39.9 µM | 71.3 µM | 25.8 µM | 73.5 µM
8 | CCCN1C(=O)/C(=C/c2ccc(O)cc2)SC1=Nc1ccccc1 | – | – | > 100 µM | > 100 µM | 21.1 µM | 46.5 µM | – | – | 17.1 µM | 32.4 µM | 19.9 µM | 55.3 µM | 18 µM | 40.8 µM | – | – | 16 µM | 36.6 µM | 17.8 µM | 33.8 µM
9 | N#C/C(=C\c1ccc(Br)cc1)n1nnc2cc(F)c(F)cc21 | – | – | 2.07 µM | 4.96 µM | 1.64 µM | 3.07 µM | 1.59 µM | 3.12 µM | – | – | 1.78 µM | 3.74 µM | – | – | 1.86 µM | 3.39 µM | 2.23 µM | 5.92 µM | 1.89 µM | 3.76 µM
10 | COc1cc(/C=C2\C[C@H]3[C@@H]4CC=C5C[C@@H](OC(C)=O)CC[C@]5(C)[C@H]4CC[C@]3(C)[C@H]2OC(C)=O)ccc1OCCCn1ccnc1 | – | – | 12.7 µM | 34.1 µM | 21.3 µM | > 50 µM | – | – | 9.63 µM | 21.6 µM | 8.31 µM | 18.1 µM | – | – | 4.72 µM | 12.5 µM | 8.2 µM | 16.6 µM | 12.3 µM | 26.2 µM
11 | Cc1cc(S(=O)(=O)/N=C(\N)n2nc(C)c(C)c2C)c(SCc2ccccc2)cc1Cl | > 100 µM | > 100 µM | – | – | > 100 µM | > 100 µM | > 100 µM | > 100 µM | > 100 µM | > 100 µM | 9.47 µM | > 100 µM | > 100 µM | > 100 µM | > 100 µM | > 100 µM | > 100 µM | > 100 µM | 46.4 µM | > 100 µM
12 | CC(=O)NC(Cc1c[nH]c2ccccc12)C(=O)O (configuration not stated) | – | – | – | > 100 µM | – | > 100 µM | – | > 100 µM | – | > 100 µM | – | > 100 µM | – | > 100 µM | – | – | – | > 100 µM | – | > 100 µM
13 | Cc1cc2c(cc1C)[n+](=O)c(C(=O)c1cccs1)c(C(F)(F)F)n2[O-] | 1.02 µM | 18.7 µM | 1.96 µM and 2.54 µM | 11 µM and 28.8 µM | 4.61 µM and 7.76 µM | 50 µM and 52 µM | – | – | 1.12 µM and 0.978 µM | 4.11 µM and 3.61 µM | 5.38 µM and 10.3 µM | 12.6 µM and 51.9 µM | 7.95 µM and 10.3 µM | 50 µM and 49 µM | 1.39 µM | 7.69 µM | 1.1 µM and 1.67 µM | 8.54 µM and 8 µM | 1.44 µM and 0.744 µM | 9.78 µM and 4.34 µM
14 | O=C1OC2(c3ccccc31)c1cc(I)c(O)c(I)c1Oc1c2cc(I)c(O)c1I | – | > 100 µM | – | – | – | > 100 µM | – | > 100 µM | – | > 100 µM | – | 43.1 µM | – | > 100 µM | – | > 100 µM | – | > 100 µM | – | > 100 µM
